# Reference: US8211695B2, “Isolated transgenic mammalian neural cell for detection of a sample containing a chemical substance damage to neurological system or selection of drugs for treating neurodegenerative disorders” (Taipei Medical University, priority 2010, dated 2012)
# Test system: AhR
# Test: DRE driven luciferase activity of C6 DRE stable clone (pGL-2 pro/DRE) and pGL2 control cell line
# Assay type: cell-based, rat
# Conditions: C6 glioma cells, pGL-2 pro/DRE stable clone versus pGL2 control cell line; FIG. 1
# Text: The plasmid pGL-2 pro/DRE was constructed by inserting a synthesized DNA fragment containing three rat dioxin responsive element (DRE, […] CGCAACTCGCTAGCATA; SEQ ID NO:1) between the KpnI and NheI sites of pGL2-promoter (pGL2 pro). To generate pGL-2 pro/DRE stable clones, plasmids pGL-2 pro/DRE and pCMV-Tag 2B were co-transfected into C6 glioma cells by Lipofectamine™ 2000. Meanwhile, plasmid pGL-2 pro and pCMV-Tag 2B were followed the same conditions to generate pGL-2 control cell line. These transfected cells were selected by Geneticin® (G418, 500 μg/ml) for 18 days. The stable clones of C6 cells were obtained and maintained in DMEM with 10% FBS and G418. To examine the stably insertion of pGL-2 pro/DRE or pGL-2 pro, the G418 resistant cells were harvested to extracted genomic DNA for polymerase chain reaction (PCR). The inserted DNA was confirmed to amplify 392 bps for pGL-2 pro/DRE stable insertion or 324 bps for pGL-2 pro (pGL-2) stable insertion, respectively. Finally, the metabolic degradable AhR agonist, 3-methylcholanthere (3MC), was used to examine the luciferase activity of pGL-2 pro/DRE C6 stable clones.
# The metabolic degradable AhR agonist, 3-methylcholanthere (3MC), was used to examine the DRE driven luciferase activity of C6 DRE stable clone and pGL2 control cell line.
compound,measurement,value
"Cc1ccc2cc3c(ccc4ccccc43)c3c2c1CC3 [3MC, 3-methylcholanthere]",DRE driven luciferase activity (luminescence),increase luminescence in a dose response only in DRE stable clone
